Laboratory results published in ChEMBL document CHEMBL1201862, “PubChem BioAssay data set” (2004).
Activity calls are given as the source filed them.

Tests used:
[1] = activation of miR-122 Renilla sensor silencing – cell-based, Huh7 psiCHECK-miR122, Renilla luciferase, cherry-picked, dose response (AID 651956); type: functional;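 also: huh7 hepatoma cells stably carrying a psiCHECK-2 miR-122 sensor plasmid; renilla luciferase signal reporting endogenous miR-122 activity after 48 h compound exposure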
[2] = luciferase reporter signal suppression in cells – H4 neuroglioma cells, luminescence, dose response (AID 1990); type: functional, cell-based
[3] = HEK-293T viability loss after treatment – luminescence, T-cell screen hits, cytotoxicity control for TCR NF-kB inhibitor project, dose response (AID 489026); type: functional, cell-based;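 also: cells exposed to compound about 14 hours before the viability readout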
[4] = alpha-synuclein stem-loop luciferase translation blockers – H4 neuroglioma cells, luminescence, confirmation (AID 1988); type: functional, cell-based
[5] = test system: H9c2; assay: cells; type: functional, cell-based; details: Rattus norvegicus, H9c2, Myocardium;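 also: confirmatory concentration-response retest of ultra-high-throughput screening hits for modulation of myocardial damage; cell death induced by hydrogen peroxide oxidative stress; compound pretreatment for 60 min then peroxide exposure for 2 h; potency is for protecting the cells against peroxide damage rather than for killing them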
[6] = Luminescence Cell-Based Dose Response HTS to Identify Inhibitors of 5'UTR Stem-Loop Driven Prion Protein mRNA Translation in H4 Neuroglioblastoma Cells. [Related pubchem assays: 1827 (Project Summary), 1813 (Primary HTS)]; type: functional
[7] = target: T1, DNA repair and recombination protein RAD54-like (Homo sapiens, UniProt Q92698); assay: RAD54 Holliday junction migration blockers – biochemical, fluorescence, cherry-picked samples, dose series, confirmation (AID 651657); type: functional
T1 sequence (Q92698 whole entry): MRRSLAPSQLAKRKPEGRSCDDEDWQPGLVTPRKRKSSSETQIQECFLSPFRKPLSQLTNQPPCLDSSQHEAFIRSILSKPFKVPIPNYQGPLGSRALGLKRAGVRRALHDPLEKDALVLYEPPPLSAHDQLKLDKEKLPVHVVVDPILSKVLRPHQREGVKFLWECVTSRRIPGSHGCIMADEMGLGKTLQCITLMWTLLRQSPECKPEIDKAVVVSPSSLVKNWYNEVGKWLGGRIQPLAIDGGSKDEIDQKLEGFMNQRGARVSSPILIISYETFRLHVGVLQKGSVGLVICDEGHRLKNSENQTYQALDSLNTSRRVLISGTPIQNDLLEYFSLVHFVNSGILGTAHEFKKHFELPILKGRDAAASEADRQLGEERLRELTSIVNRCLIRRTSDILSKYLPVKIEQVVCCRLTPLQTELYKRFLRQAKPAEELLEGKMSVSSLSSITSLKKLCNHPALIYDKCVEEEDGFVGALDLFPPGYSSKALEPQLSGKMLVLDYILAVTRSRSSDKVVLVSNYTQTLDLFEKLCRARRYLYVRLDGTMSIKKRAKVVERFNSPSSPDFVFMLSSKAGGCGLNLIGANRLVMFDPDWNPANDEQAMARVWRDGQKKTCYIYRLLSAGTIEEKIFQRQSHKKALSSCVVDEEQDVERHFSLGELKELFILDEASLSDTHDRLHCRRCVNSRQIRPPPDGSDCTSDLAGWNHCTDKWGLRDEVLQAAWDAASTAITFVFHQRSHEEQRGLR

[8] = target: T2, Hexokinase (Trypanosoma brucei, UniProt Q38C41); assay: Confirmation assay for inhibitors of Trypanosoma brucei hexokinase 1-Analogue-first series. [Related pubchem assays (depositor defined):AID1430, AID1632, AID2516, AID2560, AID2579, AID2600, AID449725, AID492951]; type: functional
T2 sequence (Q38C41 whole entry): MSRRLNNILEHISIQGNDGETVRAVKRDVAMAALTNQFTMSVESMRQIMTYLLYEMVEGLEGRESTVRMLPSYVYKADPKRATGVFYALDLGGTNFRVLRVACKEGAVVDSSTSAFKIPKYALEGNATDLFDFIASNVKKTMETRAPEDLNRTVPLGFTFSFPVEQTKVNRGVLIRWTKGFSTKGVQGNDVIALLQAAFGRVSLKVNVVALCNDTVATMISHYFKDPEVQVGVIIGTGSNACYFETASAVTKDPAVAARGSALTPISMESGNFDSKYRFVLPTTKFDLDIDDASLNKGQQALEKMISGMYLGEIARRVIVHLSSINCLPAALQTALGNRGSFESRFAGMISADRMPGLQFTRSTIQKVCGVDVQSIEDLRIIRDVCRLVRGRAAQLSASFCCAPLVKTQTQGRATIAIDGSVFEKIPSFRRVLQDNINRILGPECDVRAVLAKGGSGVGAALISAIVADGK

[9] = target: T3, Microphthalmia-associated transcription factor (Homo sapiens, UniProt O75030); assay: reducers of TRPM1 reporter luminescence, concentration series – cell-based, SK-MEL-5, cherry-picked, set 3, MITF inhibitor project, dose response (AID 493073); type: functional;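 also: SK-MEL-5 melanoma cells with luciferase driven by the MITF target TRPM1 promoter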
T3 sequence (O75030 whole entry): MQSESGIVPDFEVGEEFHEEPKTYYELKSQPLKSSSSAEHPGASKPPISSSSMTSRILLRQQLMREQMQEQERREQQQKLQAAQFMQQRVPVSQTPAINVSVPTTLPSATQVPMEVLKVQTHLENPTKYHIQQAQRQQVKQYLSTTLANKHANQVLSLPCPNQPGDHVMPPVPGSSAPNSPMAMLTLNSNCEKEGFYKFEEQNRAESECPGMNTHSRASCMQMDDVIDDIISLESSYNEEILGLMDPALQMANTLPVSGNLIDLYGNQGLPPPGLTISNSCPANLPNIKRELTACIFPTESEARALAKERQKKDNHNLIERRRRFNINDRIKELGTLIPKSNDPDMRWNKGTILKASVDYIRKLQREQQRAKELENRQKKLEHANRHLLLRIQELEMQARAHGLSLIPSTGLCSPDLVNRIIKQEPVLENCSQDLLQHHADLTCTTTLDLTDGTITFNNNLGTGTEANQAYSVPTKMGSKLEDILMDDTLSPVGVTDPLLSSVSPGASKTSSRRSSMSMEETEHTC

[10] = intracellular Trypanosoma cruzi inhibitors in host cells – cell-based, plate reader, cherry-pick samples, set 3, dose response (AID 651818); type: functional;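 also: compounds incubated with infected cells for about four days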
[11] = test system: BJ; assay: growth inhibition of engineered Ras-driven BJ cells – cell-based, alamar blue fluorescence, cherrypicked samples, dose response (AID 2631); type: functional; details: Homo sapiens;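 also: confirmatory dose-response assay in RAS-dependent BJ fibroblasts engineered with TERT, LT and ST, with cytotoxicity read by fluorescence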
[12] = NIH3T3 cell viability loss – ATP luminescence, mouse fibroblasts, counter-screen, dose response (AID 2010); type: functional, cell-based;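 also: cells exposed to compound for about 90 hours before reading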
[13] = Trypanosoma cruzi growth suppression in host cells – NIH3T3 host cells, beta-gal luminescence, confirmation (AID 2044); type: functional, cell-based;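 also: intracellular parasites grown in NIH/3T3 mouse fibroblasts as host cells; luminescent beta-galactosidase reporter signal from transgenic T. cruzi replicating inside host cells; inhibitors lower the luminescence signal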
[14] = test system: Streptococcus; assay: GAS UMAA2166 growth inhibition – luminescence, BacTiterGlo, counter-screen for streptokinase expression inhibitor project, dose response (AID 1915); type: functional, organism-based;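 also: potency for reduction of bacterial viability or growth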
[15] = test system: Streptococcus sp. 'group A'; assay: Streptococcus pyogenes SK(-)GAS viability under kanamycin – luminescence, BacTiterGlo, confirmation, counter-screen for streptokinase expression inhibitor project, dose response (AID 1900); type: functional, organism-based
[16] = test system: BJ; assay: BJ-TERT fibroblast viability loss – cell-based, RAS-independent, luminescence, dose response (AID 1933); type: functional; details: Homo sapiens
[17] = test system: BJ; assay: BJ-TERT-LT-ST fibroblast viability loss – cell-based, RAS-independent, luminescence, dose response (AID 1935); type: functional; details: Homo sapiens;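 also: BJ fibroblasts immortalized with TERT plus LT and ST oncogenes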
[18] = test system: BJ; assay: cells; type: functional, cell-based; details: Homo sapiens
[19] = DRD fibroblast viability loss – cell-based, non-viral oncogenic, luminescence, dose response (AID 1934); type: functional; details: Homo sapiens
[20] = NIH-3T3 fibroblast cytotoxicity, dose response, cytotoxicity control, cell-based, fluorescence, Alamar Blue, secondary assay (AID 2327); type: functional;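 also: NIH-3T3 mouse fibroblasts cultured with fluconazole at 8 µg/mL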
[21] = fluconazole-exposed Candida albicans growth modulators – fluorescence, retest, confirmation (AID 2467); type: functional, cell-based
[22] = target: T4, Heat shock factor protein 1 (Mus musculus, UniProt P38532); assay: enhancement of HSF1-driven luciferase signal – cell-based, NIH3T3, luminescence, dose retest, confirmation (AID 435004); type: functional;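 also: stress induced by proteasome inhibitor MG132 added 30 min after compound; luciferase reporter driven by HSF1 response element in NIH3T3 cells; actives raise luminescence as potentiators of the MG132 stress response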
T4 sequence (P38532 whole entry): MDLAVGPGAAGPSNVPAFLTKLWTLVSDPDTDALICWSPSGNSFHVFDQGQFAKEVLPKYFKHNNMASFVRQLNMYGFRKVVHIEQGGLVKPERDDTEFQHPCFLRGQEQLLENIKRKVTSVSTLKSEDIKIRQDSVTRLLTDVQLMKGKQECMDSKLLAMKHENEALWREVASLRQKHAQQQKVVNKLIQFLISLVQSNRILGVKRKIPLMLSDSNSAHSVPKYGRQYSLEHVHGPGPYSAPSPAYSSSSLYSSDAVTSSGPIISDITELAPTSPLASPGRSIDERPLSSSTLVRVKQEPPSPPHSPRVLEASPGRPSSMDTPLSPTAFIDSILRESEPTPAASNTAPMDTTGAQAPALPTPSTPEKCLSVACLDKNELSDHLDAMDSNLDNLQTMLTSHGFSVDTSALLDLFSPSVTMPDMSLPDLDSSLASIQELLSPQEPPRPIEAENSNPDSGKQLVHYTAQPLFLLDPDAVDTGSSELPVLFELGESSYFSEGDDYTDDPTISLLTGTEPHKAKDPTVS

[23] = viability of PTEN-deleted HCT116 cells – cell-based, HCT116 PTEN knockout, dose response (AID 1047); type: functional;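 also: HCT116 colon tumor cells with PTEN knocked out; cells exposed to compound for 60 hours before readout; potency for loss of cell viability measured by luminescence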
[24] = viability of HCT116 lacking mutant beta-catenin – cell-based, human colon tumor, dose response (AID 1045); type: functional;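 also: HCT116 colon tumor cells with beta catenin knocked out; cells exposed to compound for 60 hours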

C[C@@H]1CN([C@@H](C)CO)S(=O)(=O)c2ccc(/C=C/c3ccccc3)cc2O[C@@H]1CN(C)C(=O)c1cccnc1
AC50 [1]: 3.93 µM (active)

CCOc1ccccc1N1CC(=O)C(c2nc3ccccc3s2)=C1N
EC50 [2]: 6.86 µM (inconclusive)
IC50 [3]: 44.6 µM (inactive)
EC50 [4]: 4.59 µM (active)
IC50 [5]: > 79 µM (inactive)
EC50 [6]: 10.1 µM (active)

COc1ccc(C(=O)Nc2ccc3nc(N4CCN(C)CC4)cc(C)c3c2)c(OC)c1
AC50 [7]: 32.9 µM (active)

CCCC(c1nnnn1C(C)(C)CC)N(CCCO)Cc1cc2cc(C)cc(C)c2nc1O (centres undefined)
IC50 [5]: 38.7 µM (inactive)

O=C(Nc1cc(Cl)ccc1C(=O)O)c1ccncc1
IC50 [8]: > 25 µM (inactive)

O=c1c2ccc(Br)cc2sn1-c1ccccc1
IC50 [8]: 3.61 µM (active)

O=S1(=O)CCC(NC(=S)SCc2ccccc2Br)C1 (centres undefined)
AC50 [9]: 25.6 µM (active)

COc1ccc(S(=O)(=O)N(C)C[C@H]2Oc3c(NC(=O)Nc4ccc(C(F)(F)F)cc4)cccc3C(=O)N([C@@H](C)CO)C[C@@H]2C)cc1
AC50 [10]: 5.69 µM (active)

COCCCn1nc2c3c(ccc2c1O)C(=O)c1ccccc1C3=O
AC50 [9]: 8.86 µM (active)

CC1(C)N=C(N)N=C(N)N1c1ccc(Oc2ccc(Cl)cc2)c(Cl)c1
EC50 [11]: > 133 µM (inactive)
EC50 [12]: 14.3 µM (active)
EC50 [13]: 0.177 µM (active)
EC50 [14]: 0.085 µM (active)
EC50 [15]: < 0.06 µM (active)

C[C@@H]1CN([C@H](C)CO)C(=O)c2cc(NC(=O)NC3CCCCC3)ccc2O[C@H]1CN(C)Cc1ccc(Oc2ccccc2)cc1
AC50 [10]: 6.06 µM (active)

COc1ccccc1C(=O)Nc1cc(Cl)ccc1C(=O)O
IC50 [8]: > 25 µM (inactive)

Cc1noc(C)c1S(=O)(=O)Nc1ccc2c(c1)CC(=O)N([C@H](C)CO)C[C@@H](C)[C@@H](CN(C)Cc1ccc(Oc3ccccc3)cc1)O2
AC50 [10]: 5.85 µM (active)

COc1ccc(NC(=O)CCc2nc(O)c3ccccc3n2)cc1S(=O)(=O)N1CCCCC1
IC50 [5]: > 79 µM (inactive)

O=c1c2ccccc2on1-c1ccccc1
IC50 [8]: > 25 µM (inactive)

Clc1cccc(Cl)c1/C=N/Nc1c(Cl)cncc1Cl
IC50 [3]: > 80 µM (inactive)
EC50 [16]: 13.7 µM (active)
EC50 [17]: 76.6 µM (active)
EC50 [18]: > 150 µM (inconclusive)
EC50 [19]: 4.33 µM (active)

CCOC(=O)C(=Cc1cc(=O)c(OC)co1)C(=O)OCC
EC50 [20]: 8.28 µM (inconclusive)
EC50 [11]: 0.592 µM (active)
EC50 [16]: 8.75 µM (active)
EC50 [17]: 4.28 µM (active)
EC50 [21]: 0.367 µM (active)
EC50 [18]: 7.57 µM (inconclusive)
EC50 [19]: 4.24 µM (inconclusive)
EC50 [22]: 15.2 µM (active)
EC50 [23]: 3.55 µM (active)
EC50 [24]: 2.93 µM (active)

CC(Oc1ccc(Cl)cc1Cl)C(=O)Nc1ccncc1 (centres undefined)
IC50 [3]: > 80 µM (inactive)
EC50 [16]: > 150 µM (not active)
EC50 [17]: > 150 µM (not active)
EC50 [18]: 23.9 µM (active)
EC50 [19]: > 150 µM (not active)

CC(CCCN1CCCC1)Nc1ccnc2cc(Cl)ccc12 (centres undefined) [Chloroquine-pyrolidinyl]
AC50 [7]: 35.7 µM (active)

CCOC(=O)CSc1nnc(CSc2nc(O)c3ccccc3n2)n1-c1ccccc1
IC50 [5]: > 79 µM (inactive)

C[C@@H]1CN([C@H](C)CO)C(=O)c2cccc(NC(=O)c3ccc(-c4nccs4)cc3)c2O[C@@H]1CN(C)Cc1ccc(C(=O)Nc2ccccc2N)cc1
AC50 [10]: 1.69 µM (active)

O=C(Nc1ccc(S(=O)(=O)Nc2ccc(F)cc2)cc1)c1ccc(CN2CCOCC2)cc1
IC50 [3]: > 80 µM (inactive)

O=C(O)c1ccc2c(c1)S(=O)(=O)c1cc(N3CCN(c4cnccn4)CC3)ccc1C2=O
IC50 [5]: > 79 µM (inactive)

O=C(Nc1ccccc1)n1sc2ccccc2c1=O
IC50 [8]: > 25 µM (inactive)
